Where two headings read alike, the source gives them in different places.
Columns and labels:
[1] = in vivo; conditions: rat; for AUC / Cmax / Tmax: nasal CS-OA NE, Fer-Me 0.4 mg/kg and eugenol 0.8 mg/kg
Method: (§1) Fer-Me and eugenol were nasally co-administered as loaded in CS-OA NE to evaluate their concentration–time profiles in male Sprague-Dawley rats’ (200–250 g body weight; Charles River laboratories, Calco, Italy) bloodstream and CSF. The results were compared with those obtained by the rat intravenous administrations of Fer-Me (10 mg/kg; present study), and 20 mg/kg of eugenol. The sample size (4 rats/group) has been chosen based on our previous studies. The experimental procedures were approved by the Italian Ministry of Health and were performed in accordance with the European Communities Council Directive of September 2010 (2010/63/EU). According to the ARRIVE guidelines, all possible efforts were made to minimize animal pain and discomfort and to reduce the number of experimental subjects.
Fer-Me and eugenol were nasally co-administered to rats at the doses of 0.4 mg/kg (about 0.1 mg/rat) and 0.8 mg/kg (about 0.2 mg/rat), respectively, as encapsulated in CS-OA NE (Fer-Me content about 1 mg/mL; eugenol content about 2 mg/mL). A group of four rats anesthetized and laid on their backs (weighing approximately 250 g) received CS-OA NE after being fasted for 12 h. In particular, each rat received 50 μL of CS-OA NE formulation in each nostril. The nasal administration was carried out using a semiautomatic pipette connected to a short polyethylene tubing, which was inserted about 0.6 to 0.7 cm into each nostril. Following the administration, blood samples (100 μL) were collected at predetermined time points, along with CSF samples (30 μL). The blood samples (n = 4 for timepoint) were immediately mixed with 200 μL of ice-cold CH3CN and then 100 μL of internal standard (100 μM BNZ in CH3CN) was added. These samples were centrifuged at 12,500× g for 5 min. About 300 μL of the supernatant was then withdrawn and centrifuged again. Finally, 10 μL of the resultant sample was analyzed using HPLC for the quantification of Fer-Me and eugenol.
The HPLC apparatus was the same used for the uptake experiments with RPMI 2650 cells (Section 2.3.3). […] Calibration curves of peak areas versus concentration in the range 0.5 to 10 μM for Fer-Me (0.10 to 2.08 μg/mL), and eugenol (0.08 to 1.64 μg/mL), obtained dissolving the compounds in simulated CSF, were linear (n = 8, r ≥ 0.996, p < 0.0001). […] Therefore, the concentrations of these compounds determined in whole blood were referred to as the peak area ratio with respect to the internal standard BNZ. Eight different concentrations in rat whole blood at 4 °C, ranging from 0.5 to 50 μM for Fer-Me (0.10 to 10.41 μg/mL) and eugenol (0.08 to 8.21 μg/mL) were used to generate calibration curves in this biological system, which were linear (n = 8, r ≥ 0.990, p < 0.001).
Fer-Me in vivo half-life (t1/2) in the rats’ bloodstream was determined using nonlinear regression (exponential decay) of concentration values quantified at appropriate time intervals after infusion, further validated by applying linear regression to the semi-logarithmic plot. The area under the concentration–time curves (AUC, μg∙mL^−1∙min) in rat bloodstreams or CSF, following Fer-Me intravenous administration or CA-OA NE nasal administration, were calculated using the trapezoidal method.
Following the nasal administration of CS-OA NE, the absolute bioavailability (F) values of Fer-Me and eugenol were calculated as the ratio of the nasal AUC to the intravenous AUC values measured in the bloodstream, normalized to the respective doses, according to Equation (3):(3) F=AUCnasal/AUCIV·doseIV/dosenasal GraphPad Prism version 7.0 (GraphPad Software, San Diego, CA, USA) was used for all calculations.

[2] = Intravenous administration of Fer-Me to rats (bloodstream and CSF pharmacokinetics); type: in vivo, rat; conditions: rat, in vivo, iv
Method: Charles River laboratories, Calco, Italy) bloodstream and CSF. […] The sample size (4 rats/group) has been chosen based on our previous studies. The experimental procedures were approved by the Italian Ministry of Health and were performed in accordance with the European Communities Council Directive of September 2010 (2010/63/EU). According to the ARRIVE guidelines, all possible efforts were made to minimize animal pain and discomfort and to reduce the number of experimental subjects. Fer-Me solution (2.5 mg/mL final concentration, 15% v/v EtOH content) was prepared by first dissolving Fer-Me in EtOH and then adding this latter solution to a saline solution (0.9% NaCl). […] The aqueous phase was then subjected to a double extraction with 1 mL of H2O-saturated ethyl acetate. […] Data were acquired and processed through CLASS-VP Software; version 7.2.1 (Shimadzu Italia, Milan, Italy). The mobile phase was eluted under isocratic conditions (0.8 mL/min) and was constituted by a mixture of acetic acid in H2O (0.4% v/v) and MeOH, whose ratio was 40:60 (v/v). The UV-Vis detector was set at 320 nm for the detection of Fer-Me, its hydrolysis product Fer, and Caf-Me, which was utilized as an internal standard during blood sample extraction. […] The average recoveries were approximately 40% for Fer and 58% for Fer-Me. For this reason, the concentrations of these compounds were determined by their peak area ratio with respect to the internal standard (Caf-Me). […] Fer-Me in vivo half-life (t1/2) in the rats' bloodstream was determined using nonlinear regression (exponential decay) of concentration values quantified at appropriate time intervals after infusion, further validated by applying linear regression to the semi-logarithmic plot.

[3] = cited from earlier work
[4] = tested on: several cell lines; conditions: cited from earlier work
[5] = male, Sprague-Dawley, rat, in vivo
Method: as §1

[6] = cited from earlier work; remark: listed apart in the source

COC(=O)/C=C/c1ccc(O)c(OC)c1 [Fer-Me, methyl ferulate]
CSF bioavailability (AUC) after nasal CS-OA NE relative to intravenous administration [1]: about 30 times | absolute bioavailability F (bloodstream) [1]: 56% | time at which CSF concentration decreased to zero (permanence in the CSF) [1]: 120 min | time within which plasma concentration decreased to zero [1]: ≤ 90 min | Tmax in CSF ([1]; inhaled or intranasal): 20 min | Tmax in the bloodstream ([1]; inhaled or intranasal): 40 min | Tmax in CSF [2]: 20 min | kinetic elimination constant (kel) ([2]; 10 mg/kg): 0.069 ± 0.003 min⁻¹

C=CCc1ccc(O)c(OC)c1 [eugenol]
absolute bioavailability ([3]; eugenol oral administration): about 4% | AUC in CSF ([3]; rat, oral dose of 500 mg/kg of eugenol): 30.97 ± 2.18 µg·min/mL | concentration known to induce cytotoxicity [4]: 5000 µM | dose-normalized CSF AUC of eugenol relative to Fer-Me [5]: about 16 times | bioavailability ([1]; male, Sprague-Dawley, 0.8 mg/kg, nasal CS-OA NE vs intravenous, dose-normalized, read-out: absolute bioavailability F (bloodstream)): 95% | time at which CSF concentration decreased to zero (permanence in the CSF) ([1]; male, Sprague-Dawley): 120 min | time within which plasma concentration decreased to zero ([1]; male, Sprague-Dawley): ≤ 90 min | AUC ([1]; male, Sprague-Dawley, inhaled or intranasal, 0.8 mg/kg, read-out: AUC in CSF (converted)): 1060 ng·h/mL | AUC ([1]; male, Sprague-Dawley, inhaled or intranasal, 0.8 mg/kg, read-out: AUC in the bloodstream (converted)): 111 ng·h/mL | Cmax ([1]; male, Sprague-Dawley, inhaled or intranasal, 0.8 mg/kg, read-out: Cmax in CSF): 1050 ± 80 ng/mL | Cmax ([1]; male, Sprague-Dawley, inhaled or intranasal, 0.8 mg/kg, read-out: Cmax in the bloodstream): 150 ± 10 ng/mL | Tmax ([1]; male, Sprague-Dawley, inhaled or intranasal, 0.8 mg/kg, read-out: Tmax in CSF (converted)): 20 min | Tmax ([1]; male, Sprague-Dawley, inhaled or intranasal, 0.8 mg/kg, read-out: Tmax in the bloodstream (converted)): 40 min | permanence in the rat CSF ([6]; in vivo): 50 min | AUC in CSF ([6]; rat, eugenol 20 mg/kg i.v.): 56.1 ± 4.2 µg·min/mL | Tmax in CSF ([6]; rat, eugenol 20 mg/kg i.v.): 10 min | t1/2 in the bloodstream ([6]; rat, in vivo, iv, 20 mg/kg): about 20 min

— publication PMC11945475, “Nasal Administration of a Nanoemulsion Based on Methyl Ferulate and Eugenol Encapsulated in Chitosan Oleate: Uptake Studies in the Central Nervous System” (Pharmaceutics, 2025)
